Results from patent US20240083910A1, “AMIDO-SUBSTITUTED PYRIDYL COMPOUNDS AND METHODS OF USE THEREOF FOR THE TREATMENT OF HERPESVIRUSES” (Merck Sharp & Dohme LLC, priority 2020, published 2024).

Key:
[1] = target: T1, Human cytomegalovirus DNA polymerase (Human cytomegalovirus, UniProt P08546); experiment: CMV polymerase assay (AlphaLISA); type: biochemical; conditions: HCMV polymerase 0.2 nM; 30 min pre-incubation; 60 min at 37° C.; read-out: CMV (IC50)
T1 construct: made in house; host or cells: SF21 insect cells (baculovirus vector)
T1 sequence (P08546 whole entry): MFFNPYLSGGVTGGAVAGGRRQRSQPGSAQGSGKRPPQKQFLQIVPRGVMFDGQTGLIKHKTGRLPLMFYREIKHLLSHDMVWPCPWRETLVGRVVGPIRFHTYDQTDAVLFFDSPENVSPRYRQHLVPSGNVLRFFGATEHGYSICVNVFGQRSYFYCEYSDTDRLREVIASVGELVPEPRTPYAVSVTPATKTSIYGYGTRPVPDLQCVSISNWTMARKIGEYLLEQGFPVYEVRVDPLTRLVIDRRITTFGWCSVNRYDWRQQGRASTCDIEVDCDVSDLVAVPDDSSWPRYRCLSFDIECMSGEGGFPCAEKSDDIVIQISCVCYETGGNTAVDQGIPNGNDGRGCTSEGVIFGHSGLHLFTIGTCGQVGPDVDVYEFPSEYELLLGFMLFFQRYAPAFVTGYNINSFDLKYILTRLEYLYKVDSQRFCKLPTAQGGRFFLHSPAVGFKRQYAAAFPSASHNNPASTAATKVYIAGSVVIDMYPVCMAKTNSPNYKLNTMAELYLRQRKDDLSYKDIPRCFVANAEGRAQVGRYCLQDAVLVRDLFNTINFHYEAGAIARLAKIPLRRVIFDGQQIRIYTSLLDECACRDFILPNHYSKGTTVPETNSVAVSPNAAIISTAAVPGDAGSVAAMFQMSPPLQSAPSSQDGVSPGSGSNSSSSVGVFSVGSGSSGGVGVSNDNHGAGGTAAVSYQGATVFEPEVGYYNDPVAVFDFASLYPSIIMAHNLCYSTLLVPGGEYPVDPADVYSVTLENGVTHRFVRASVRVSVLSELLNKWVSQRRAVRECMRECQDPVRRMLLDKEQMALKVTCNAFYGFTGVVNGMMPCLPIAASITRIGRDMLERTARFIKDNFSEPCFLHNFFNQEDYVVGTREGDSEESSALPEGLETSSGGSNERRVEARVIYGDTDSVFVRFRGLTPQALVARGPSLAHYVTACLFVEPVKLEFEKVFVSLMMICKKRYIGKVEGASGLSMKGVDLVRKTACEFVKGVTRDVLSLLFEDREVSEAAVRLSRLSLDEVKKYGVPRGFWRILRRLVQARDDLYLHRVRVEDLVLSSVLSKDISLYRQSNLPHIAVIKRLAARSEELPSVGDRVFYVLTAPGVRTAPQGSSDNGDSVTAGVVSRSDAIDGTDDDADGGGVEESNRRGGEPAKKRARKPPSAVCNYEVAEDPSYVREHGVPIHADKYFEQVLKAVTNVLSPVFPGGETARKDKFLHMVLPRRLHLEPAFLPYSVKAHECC
Description: Human cytomegalovirus and varicella zoster virus DNA polymerases were expressed via baculovirus vector in SF21 cells and purified. Heterodimeric nucleic acid substrate used in the herpesvirus polymerase reactions was generated by annealing a 59-mer template to a 17-mer digoxigenin-labeled primer. Polymerase (HCMV final concentration of 0.2 nM; VZV final concentration of 0.4 nM) was combined with an inhibitor compound or DMSO in assay buffer (10 mM HEPES, pH 7.5, 25 mM KCl, 25 mM NaCl, 5 mM MgCl2, 5% glycerol, 0.67 mg/ml bovine serum albumin, and 1 mM tris(2-carboxyethyl)phosphine), and this mixture was pre-incubated for 30 minutes at room temperature in 384-well microtiter plates. The polymerization reaction was initiated by the addition of template/primer substrate (final concentration: 1.6 nM), and dNTPs (final concentration: 24 nM dCTP, 24 nMdGTP, 16 nM dATP, 16 nM dTTP, and 0.8 nM biotin-dUTP). After 60 min incubation at 37° C., reactions were terminated with quench buffer (25 mM HEPES pH 7.5, 100 mM NaCl, 0.25% Tween-20, 12 mM EDTA, and 1 mg/ml bovine serum albumin). Incorporation of biotinylated UTP was detected with 2.5-5 ug/ml anti-DIG AlphaLISA acceptor beads and 5-10 ug/ml streptavidin AlphaLISA donor beads (PerkinElmer). Compound effects were normalized to the window defined by the controls (DMSO only and pre-quenched wells) and were fit using a 4-parameter algorithm to report an IC50.

HCMV Strain AD169 = experiment: Viral qPCR assay, HCMV; type: cell-based, Human cytomegalovirus; conditions: Human betaherpesvirus 5, AD169, MRC5, 72 h, MRC-5 cells, 0.05-0.1 pfu/cell, growth media or 50% fetal bovine serum, viral genome copies by qPCR, read-out: CMV Cell (EC50)
Description: (§1) MRC5 cells, Vero cells, and MeWo cells were obtained from ATCC, and were maintained at 37° C./5% CO2/90% relative humidity in Minimal Essential Medium with 10% fetal bovine serum, […] L-glutamine, 100 units/ml penicillin and 100 ug/ml streptomycin. Assay plates were prepared by dispensing compounds dissolved in DMSO into wells of 384 well collagen-coated plates using an ECHO acoustic dispenser. Each compound was tested in a 10-point, serial 3-fold dilution. Controls included uninfected cells and infected cells treated only with DMSO. Assays were initiated by mixing selected cells, in suspension, with virus, and dispensing 50 μl/well infected cells to pre-plated compounds. Plates were incubated at 37° C./5% CO2/90% relative humidity for ˜72 hrs to permit genomic replication, and infected cells were lysed by the addition of an equal volume of lysis buffer (10 mM Tris-HCl, pH8, 50 mM KCl, 2 mM MgCl2, 0.45% NP-40, 0.45% Tween-20, and 100 μg/ml proteinase K). An aliquot of the lysate was transferred to a 384-well PCR plate and incubated at 56° C. for 1 hour and then at 95° C. for 10 min. Levels of a viral gene and of the cellular control, PPIA (Thermo Fisher Assay ID=Hs04194521_s1), were measured in separate 10 ul qPCR assays using TaqMan® Gene Expression Master Mix (Applied Biosystems), and an 7900HT Fast Real-Time PCR System with 384-Well Block Module. 7-point, serial 10-fold dilutions of a plasmid standard were run on each plate to generate a standard curve, and genome copies numbers were calculated by plotting experimental Ct onto linear regression of the standard curve. Viral genome copy numbers were normalized by cellular control copy number, and compound effects were normalized to the window defined by the controls. Calculated % effects were fit using a 4-parameter algorithm, and EC50 was reported.
(§2) MRC5 cells, Vero cells, and MeWo cells were obtained from ATCC, and were maintained at 37° C./5% CO2/90% relative humidity in Minimal Essential Medium with 10% fetal bovine serum, […] L-glutamine, 100 units/ml penicillin and 100 ug/ml streptomycin. Assay plates were prepared by dispensing compounds dissolved in DMSO into wells of 384 well collagen-coated plates using an ECHO acoustic dispenser. Each compound was tested in a 10-point, serial 3-fold dilution. Controls included uninfected cells and infected cells treated only with DMSO. Assays were initiated by mixing selected cells, in suspension, with virus, and dispensing 50 μl/well infected cells to pre-plated compounds. Plates were incubated at 37° C./5% CO2/90% relative humidity for ˜72 hrs to permit genomic replication, and infected cells were lysed by the addition of an equal volume of lysis buffer (10 mM Tris-HCl, pH 8, 50 mM KCl, 2 mM MgC12, 0.45% NP-40, 0.45% Tween-20, and 100 μg/ml proteinase K). An aliquot of the lysate was transferred to a 384-well PCR plate and incubated at 56° C. for 1 hour and then at 95° C. for 10 min. Levels of a viral gene were measured in 10 ul qPCR assays using TaqMan® Gene Expression Master Mix (Applied Biosystems), and an 7900HT Fast Real-Time PCR System with 384-Well Block Module. 7-point, serial 10-fold dilutions of a plasmid standard were run on each plate to generate a standard curve, and genome copies numbers were calculated by plotting experimental Ct onto linear regression of the standard curve. Compound effects on viral genome copy number were normalized to the window defined by the controls. Calculated % effects were fit using a 4-parameter algorithm, and ECso was reported.
HCMV: Strain AD169 Street was assayed in MRC-5 cells and was used at 0.05-0.1 pfu/cell. The assays were performed in either growth media or in the same media with 50% fetal bovine serum. Primer-probe set was Thermo Fisher Assay ID=AIFATFK.

VZV = experiment: Viral qPCR assay, VZV; type: cell-based, varicella zoster virus; conditions: Human alphaherpesvirus 3, 72 h, MeWo or MRC5 cells, 0.04-0.1 pfu/cell, growth medium, viral genome copies by qPCR
Description: as §1, §2
VZV: Strain Street was maintained as an infected cell stock in MRC-5 cells. It was assayed in MeWo or MRC5 cells and was used at 0.04-0.1 pfu/cell. The assays were performed in growth medium. Primer-probe set was Thermo Fisher Assay ID=AIPAEXQ.

HSV-1 Strain F = experiment: Viral qPCR assay, HSV-1; type: cell-based, Herpes Simplex Virus type 1; conditions: Human alphaherpesvirus 1, 72 h, Vero or MRC5 cells, 0.0005-0.004 pfu/cell, growth medium, viral genome copies by qPCR, read-out: HSV1 Cell (EC50)
Description: as §1, §2
HSV-1: Strain F […] was assayed in Vero or MRC5 cells and was used at 0.0005-0.004 pfu/cell in growth medium. Primer-probe set was Thermo Fisher Assay ID=AIBJZIB

IC50 [1] [nM]	SMILES	EC50 (HCMV Strain AD169) [nM]	EC50 (VZV) [nM]	EC50 (HSV-1 Strain F) [nM]
5.36	COc1nc(-c2cc[nH]c2)c(O[C@H]2CCN3C(=O)OC[C@@H]3C2)cc1C(=O)NCc1ccc(Cl)cc1 [Compound 28]	200	196	103
20.9	COc1nc(-c2ccsc2)c(O[C@H]2CCN3C(=O)OC[C@@H]3C2)cc1C(=O)NCc1ccc(Cl)cc1 [Compound 21]	500	417	377
3.16	CN(C)CCOc1nc(-c2cnn(C(F)F)c2)c(O[C@H]2CCN3C(=O)OC[C@@H]3C2)cc1C(=O)NCc1ccc(Cl)cc1 [Compound 88]	32.5	317	257
4.62	CC(O)COc1nc(-c2cnn(C(F)F)c2)c(O[C@H]2CCN3C(=O)OC[C@@H]3C2)cc1C(=O)NCc1ccc(Cl)cc1 (some centres unmarked) [Compound 93]	204	250	59.1
10.4	COc1nc(-c2ccncc2)c(O[C@H]2CCN3C(=O)OC[C@@H]3C2)cc1C(=O)NCc1ccc(Cl)cc1 [Compound 42]	194	130	79.8
2.72	CCN(CC)CCOc1nc(-c2cnn(C(F)F)c2)c(O[C@H]2CCN3C(=O)OC[C@@H]3C2)cc1C(=O)NCc1ccc(Cl)cc1 [Compound 96]	75.9	400	148
5.13	CCn1cc(-c2nc(OC)c(C(=O)NCc3ccc(Cl)cc3)cc2O[C@H]2CCN3C(=O)OC[C@@H]3C2)cn1 [Compound 31]	175	102	103
14.5	COc1nc(-c2cnn(C(F)F)c2)c(O[C@@H]2CCN(C(C)=O)[C@H](C)C2)cc1C(=O)NCc1ccc(Cl)cc1 [Compound 102]	344	887	601
1.46	CN(C)CCCOc1nc(-c2cnn(C(F)F)c2)c(O[C@H]2CCN3C(=O)OC[C@@H]3C2)cc1C(=O)NCc1ccc(Cl)cc1 [Compound 95]	151	463	141
18.5	O=C(NCc1ccc(Cl)cc1)c1cc(O[C@H]2CCN3C(=O)OC[C@@H]3C2)c(-c2cnn(C(F)F)c2)nc1OCC1CC1(F)F (some centres unmarked) [Compound 91]	271	569	346

The next lines start with the molecule.

SMILES	IC50 [1] [nM]	EC50 (HCMV Strain AD169) [nM]	EC50 (VZV) [nM]	EC50 (HSV-1 Strain F) [nM]
COc1nc(-c2cnc(C3CC3)s2)c(O[C@H]2CCN3C(=O)OC[C@@H]3C2)cc1C(=O)NCc1ccc(Cl)cc1 [Compound 63]	8.74	164	167	148
COc1nc(-c2ccc(=O)[nH]c2)c(O[C@H]2CCN3C(=O)OC[C@@H]3C2)cc1C(=O)NCc1ccc(Cl)cc1 [Compound 47]	4.87	1300	2320	654
Cc1nsc(-c2nc(OCC(C)(C)O)c(C(=O)NCc3ccc(Cl)cc3)cc2O[C@H]2CCN3C(=O)OC[C@@H]3C2)n1 [Compound 87]	5.13	108	207	140
COc1nc(-c2occc2C=O)c(O[C@H]2CCN3C(=O)OC[C@@H]3C2)cc1C(=O)NCc1ccc(Cl)cc1 [Compound 23]	18	140	117	87.4
COc1nc(-c2cccs2)c(O[C@H]2CCN3C(=O)OC[C@@H]3C2)cc1C(=O)NCc1ccc(Cl)cc1 [Compound 12]	9.27	313	235	187
COc1csc(-c2nc(OC)c(C(=O)NCc3ccc(Cl)cc3)cc2O[C@H]2CCN3C(=O)OC[C@@H]3C2)c1 [Compound 34]	8.26	421	1920	260
COc1nc(-c2ncco2)c(O[C@H]2CCN3C(=O)OC[C@@H]3C2)cc1C(=O)N[C@@H](C)c1ccc(Cl)cc1 [Compound 64]	69.3	911	1560	597
